Laboratory results published in the CheMixHub ionic liquid set.
± gives the uncertainty stated by the source.

Assay: xn = mol fraction of the nth substance listed

CCCC[N+](CCCC)(CCCC)CCCC.[Br-] + CCCCCCCCCCCC[N+](C)(C)C.[Br-] + O
viscosity [mPa·s], 100 kPa
Settings | x2 = 5.422e-05, x1 = 0.0001802 | x2 = 0.0001084, x1 = 0.0001801 | x2 = 0.0001626, x1 = 0.0001801 | x2 = 0.0002169, x1 = 0.0001801 | x2 = 0.0002711, x1 = 0.0001801 | x2 = 0.0003252, x1 = 0.0001801 | x2 = 0.0003794, x1 = 0.0001801 | x2 = 0.0004336, x1 = 0.0001801 | x2 = 0.0004878, x1 = 0.0001801 | x2 = 0.000542, x1 = 0.0001801
293.15 K | 1.056 ± 0.027 | 1.057 ± 0.027 | 1.059 ± 0.027 | 1.061 ± 0.027 | 1.061 ± 0.027 | 1.062 ± 0.027 | 1.062 ± 0.027 | 1.063 ± 0.027 | 1.063 ± 0.027 | 1.063 ± 0.027
298.15 K | 0.939 ± 0.027 | 0.942 ± 0.027 | 0.943 ± 0.027 | 0.945 ± 0.027 | 0.946 ± 0.027 | 0.946 ± 0.027 | 0.948 ± 0.027 | 0.949 ± 0.027 | 0.95 ± 0.027 | 0.951 ± 0.027
303.15 K | 0.824 ± 0.027 | 0.825 ± 0.027 | 0.826 ± 0.027 | 0.826 ± 0.027 | 0.827 ± 0.027 | 0.827 ± 0.027 | 0.828 ± 0.027 | 0.828 ± 0.027 | 0.828 ± 0.027 | 0.828 ± 0.027
308.15 K | 0.742 ± 0.027 | 0.744 ± 0.027 | 0.745 ± 0.027 | 0.746 ± 0.027 | 0.746 ± 0.027 | 0.746 ± 0.027 | 0.747 ± 0.027 | 0.747 ± 0.027 | 0.747 ± 0.027 | 0.747 ± 0.027
313.15 K | 0.675 ± 0.027 | 0.676 ± 0.027 | 0.677 ± 0.027 | 0.677 ± 0.027 | 0.678 ± 0.027 | 0.678 ± 0.027 | 0.678 ± 0.027 | 0.678 ± 0.027 | 0.678 ± 0.027 | 0.679 ± 0.027
318.15 K | 0.62 ± 0.026 | 0.621 ± 0.026 | 0.621 ± 0.027 | 0.621 ± 0.026 | 0.622 ± 0.026 | 0.622 ± 0.026 | 0.622 ± 0.026 | 0.622 ± 0.026 | 0.622 ± 0.026 | 0.623 ± 0.026

CCCCCCCC(=O)[O-].c1c[nH+]c[nH]1 + CCCCCCCCO
101.3 kPa
Settings | viscosity [mPa·s]
293.15 K, x2 = 0.4 | 39.42 ± 0.91
293.15 K, x2 = 0.6005 | 24 ± 0.56
298.15 K, x2 = 0.4 | 33.3 ± 0.77
298.15 K, x2 = 0.5007 | 25.9 ± 0.61
298.15 K, x2 = 0.6005 | 20.3 ± 0.48
298.15 K, x2 = 0.8997 | 9.1 ± 0.23
303.15 K, x2 = 0.6005 | 17.2 ± 0.41
308.15 K, x2 = 0.1011 | 40.69 ± 0.96
308.15 K, x2 = 0.6999 | 11.72 ± 0.29
313.15 K, x2 = 0.6005 | 12.3 ± 0.31
318.15 K, x2 = 0.1011 | 27.68 ± 0.65
318.15 K, x2 = 0.799 | 6.7 ± 0.18
318.15 K, x2 = 0.8997 | 5.38 ± 0.15
323.15 K, x2 = 0.1011 | 22.9 ± 0.55
323.15 K, x2 = 0.2991 | 17.1 ± 0.41
323.15 K, x2 = 0.8997 | 4.82 ± 0.14

CC1=CCC(C(C)C)=CC1 + CCCCCCCC[N+](CCCCCCCC)(CCCCCCCC)CCCCCCCC.[Br-] + [Cl-].[Cl-].[Co+2]
Settings | viscosity [mPa·s]
296.1 K, 101.3 kPa, x2 = 0.4, x3 = 0.2 | 120000

CCCCCCCCn1cc[n+](C)c1C.F[P-](F)(F)(F)(F)F + CCCCCCCC[n+]1ccn(C)c1.F[P-](F)(F)(F)(F)F
100 kPa, x2 = 0.5
Settings | viscosity [mPa·s]
333.15 K | 90.3 ± 7.1
343.15 K | 60.9 ± 1.7
353.15 K | 44.5 ± 1.5

O=C1c2ccccc2C(=O)C1(O)O + CCCC[N+](CCCC)(CCCC)CCCC.O=S(=O)([O-])O
100 kPa, x2 = 0.571
Settings | electrical conductivity [S/m] | viscosity [mPa·s]
293.15 K | 2.5e-06 ± 3e-07 | –
298.15 K | 7.8e-06 ± 8e-07 | –
303.15 K | 2.49e-05 ± 2.5e-06 | –
308.15 K | 6.58e-05 ± 6.6e-06 | –
313.15 K | 0.000153 ± 1.5e-05 | –
318.15 K | 0.000325 ± 3.2e-05 | –
323.15 K | 0.000614 ± 6.1e-05 | –
328.15 K | 0.00109 ± 0.00011 | 27000
333.15 K | 0.00183 ± 0.00018 | –
343.15 K | – | 6500 ± 3200

c1nnn[nH]1 + CCCC[P+](CCCC)(CCCC)CCCC.[Cl-] + [N]=O
303.15 K, 101.3 kPa
Settings | viscosity [mPa·s]
x1 = 0.2439, x2 = 0.2439 | 3.1 ± 1.4
x1 = 0.2518, x2 = 0.2518 | 4 ± 1.3
x1 = 0.2597, x2 = 0.2597 | 4 ± 1.4
x1 = 0.2723, x2 = 0.2723 | 6 ± 1.9
x1 = 0.2867, x2 = 0.2867 | 9.2 ± 2.4

CCCCC(=O)[O-].CC[NH+](CC)CCO + CCCC[n+]1ccn(C)c1.COP(=O)([O-])OC
101 kPa
Settings | viscosity [mPa·s]
278.15 K, x1 = 0.6984 | 216.8 ± 5.2
283.15 K, x1 = 0.4973 | 226.8 ± 5.6
288.15 K, x1 = 0.1018 | 874 ± 35
293.15 K, x1 = 0.1018 | 594 ± 21
298.15 K, x1 = 0.1952 | 271.2 ± 7
298.15 K, x1 = 0.5989 | 76 ± 1.2
298.15 K, x1 = 0.7978 | 58.54 ± 0.93
303.15 K, x1 = 0.1952 | 199.9 ± 4.4
303.15 K, x1 = 0.3029 | 132 ± 2.5
303.15 K, x1 = 1 | 37.12 ± 0.63
308.15 K, x1 = 0.1952 | 150.4 ± 2.9
308.15 K, x1 = 0.5989 | 46.85 ± 0.72
313.15 K, x1 = 0.3029 | 79.5 ± 1.2
313.15 K, x1 = 0.4003 | 58.57 ± 0.87
313.15 K, x1 = 0.5989 | 37.62 ± 0.58
313.15 K, x1 = 0.8868 | 26.19 ± 0.43
318.15 K, x1 = 0.1952 | 90.1 ± 1.4
318.15 K, x1 = 0.4003 | 47.13 ± 0.71
318.15 K, x1 = 0.5989 | 30.62 ± 0.47
318.15 K, x1 = 0.6984 | 26.67 ± 0.42
323.15 K, x1 = 0.7978 | 19.5 ± 0.31
328.15 K, x1 = 0.4973 | 25.35 ± 0.39
328.15 K, x1 = 0.5989 | 21.04 ± 0.32
328.15 K, x1 = 0.6984 | 18.34 ± 0.29
333.15 K, x1 = 0.1018 | 62.36 ± 0.82
333.15 K, x1 = 0.3029 | 34.47 ± 0.49
333.15 K, x1 = 0.4003 | 26.54 ± 0.39
333.15 K, x1 = 0.8868 | 12.34 ± 0.2
333.15 K, x1 = 1 | 10.94 ± 0.19
338.15 K, x1 = 0.1952 | 38.69 ± 0.53
338.15 K, x1 = 0.4973 | 18.07 ± 0.28
338.15 K, x1 = 0.5989 | 15.08 ± 0.23
343.15 K, x1 = 0.4003 | 19.11 ± 0.28
343.15 K, x1 = 0.4973 | 15.48 ± 0.24
343.15 K, x1 = 0.6984 | 11.27 ± 0.18
348.15 K, x1 = 0.5989 | 11.19 ± 0.17
353.15 K, x1 = 0.5989 | 9.76 ± 0.15
358.15 K, x1 = 0.8868 | 5.91 ± 0.1
358.15 K, x1 = 1 | 5.15 ± 0.09
363.15 K, x1 = 0.1018 | 21.41 ± 0.28
363.15 K, x1 = 0.6984 | 6.56 ± 0.1
373.15 K, x1 = 0.4003 | 8.6 ± 0.13
373.15 K, x1 = 1 | 3.53 ± 0.06

CCCC[n+]1ccn(C)c1.COS(=O)(=O)[O-] + CCCC[n+]1ccn(C)c1.F[B-](F)(F)F
101 kPa
Settings | viscosity [mPa·s]
298.15 K, x2 = 0.4358 | 161.7 ± 6.9
298.15 K, x2 = 0.5118 | 158.9 ± 6.4
298.15 K, x2 = 0.6026 | 146.2 ± 5.5
298.15 K, x2 = 0.9447 | 110.8 ± 3.4
299.15 K, x2 = 0 | 202.9 ± 9.9
299.15 K, x2 = 0.1209 | 181.8 ± 8.2
301.15 K, x2 = 0.1209 | 162.8 ± 6.8
301.15 K, x2 = 0.2142 | 158.7 ± 6.5
301.15 K, x2 = 0.4358 | 136.4 ± 4.9
301.15 K, x2 = 0.6934 | 117 ± 3.6
301.15 K, x2 = 0.7813 | 109.5 ± 3.2
302.15 K, x2 = 0 | 171.4 ± 7.4
302.15 K, x2 = 0.3057 | 144.1 ± 5.4
302.15 K, x2 = 0.5412 | 122.2 ± 3.9
302.15 K, x2 = 0.6026 | 117.5 ± 3.7
302.15 K, x2 = 0.648 | 113.8 ± 3.4
303.15 K, x2 = 0.406 | 127.9 ± 4.3
303.15 K, x2 = 0.5118 | 118.6 ± 3.7
304.15 K, x2 = 0.3057 | 129.6 ± 4.4
304.15 K, x2 = 0.5412 | 109.7 ± 3.2
304.15 K, x2 = 0.6934 | 99.9 ± 2.6
305.15 K, x2 = 0.1209 | 131.1 ± 4.5
305.15 K, x2 = 0.2142 | 127.8 ± 4.3
305.15 K, x2 = 0.6026 | 100.3 ± 2.6
305.15 K, x2 = 0.9005 | 82.8 ± 1.7
305.15 K, x2 = 0.9447 | 78.2 ± 1.6
307.15 K, x2 = 0.4358 | 99.4 ± 2.6
307.15 K, x2 = 0.6026 | 90.9 ± 2.2
308.15 K, x2 = 0.1209 | 112.4 ± 3.2
308.15 K, x2 = 0.406 | 98.7 ± 2.7
308.15 K, x2 = 0.9447 | 68 ± 1.1

NC=O + CCCC[n+]1ccn(C)c1.F[B-](F)(F)F
101 kPa
Settings | viscosity [mPa·s]
293.15 K, x2 = 0 | 3.66 ± 0.11
293.15 K, x2 = 0.2758 | 10.51 ± 0.33
293.15 K, x2 = 0.3629 | 16.75 ± 0.53
293.15 K, x2 = 0.5095 | 31.8 ± 1
293.15 K, x2 = 0.569 | 39.6 ± 1.3
298.15 K, x2 = 0.2758 | 9.47 ± 0.3
298.15 K, x2 = 0.7588 | 56.7 ± 1.8
298.15 K, x2 = 0.8107 | 64.8 ± 2.1
303.15 K, x2 = 0.4499 | 17.48 ± 0.55
303.15 K, x2 = 0.8107 | 50.9 ± 1.6
303.15 K, x2 = 0.8626 | 57.3 ± 1.8
303.15 K, x2 = 0.9313 | 66.4 ± 2.2
308.15 K, x2 = 0.2758 | 7.5 ± 0.23
308.15 K, x2 = 0.4499 | 14.74 ± 0.47
308.15 K, x2 = 0.9313 | 51.2 ± 1.6
313.15 K, x2 = 0.2054 | 4.61 ± 0.14
313.15 K, x2 = 0.3629 | 8.75 ± 0.28
313.15 K, x2 = 0.4499 | 11.81 ± 0.37
318.15 K, x2 = 0.2758 | 5.08 ± 0.16
318.15 K, x2 = 0.569 | 14.1 ± 0.45
318.15 K, x2 = 0.6639 | 18.31 ± 0.58
318.15 K, x2 = 0.8626 | 29.35 ± 0.94

NCCO + CCCC[n+]1ccn(C)c1.F[P-](F)(F)(F)(F)F
101 kPa, x1 = 1
Settings | electrical conductivity [S/m] | viscosity [mPa·s]
288.15 K | 0.00163 ± 1e-05 | 31 ± 12
293.15 K | 0.00189 ± 1e-05 | 23.7 ± 9.5
298.15 K | 0.00227 ± 1e-05 | –
303.15 K | 0.00272 ± 1e-05 | –
308.15 K | 0.00321 ± 1e-05 | –
313.15 K | 0.00357 ± 1e-05 | –
318.15 K | 0.00622 ± 1e-05 | 8.1 ± 3.2
323.15 K | 0.00689 ± 1e-05 | –
